For this assay, the target named is T1, Human TRPA1 expressing CHO cells (Homo sapiens, UniProt O75762).
T1 construct: expressed in transfected cells; host or cells: CHO cells (under G-418 selection)
In words: 45Calcium uptake assay: inhibition of AITC induced cellular uptake of radioactive calcium. It counts as cell-based. The conditions noted are these: AITC 30 μM; for inhibition at 1 µM: 1.0 μM test compound, read-out: Percentage inhibition at 1.0 μM; for inhibition at 1 µM / inhibition at 10 µM / IC50: human TRPA1 CHO cells; for inhibition at 10 µM: 10.0 μM test compound, read-out: Percentage inhibition at 10.0 μM; for IC50: read-out: IC50 value (range). The gist of the method:
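CHO cells expressing human TRPA1 were preincubated 10 min with compound (0.5% DMSO final), then stimulated 3 min with 30 μM AITC plus 5 μCi/ml 45Ca2+. Lysate radioactivity gave % of maximal uninhibited response; IC50 by nonlinear regression.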

T1 sequence (O75762 whole entry): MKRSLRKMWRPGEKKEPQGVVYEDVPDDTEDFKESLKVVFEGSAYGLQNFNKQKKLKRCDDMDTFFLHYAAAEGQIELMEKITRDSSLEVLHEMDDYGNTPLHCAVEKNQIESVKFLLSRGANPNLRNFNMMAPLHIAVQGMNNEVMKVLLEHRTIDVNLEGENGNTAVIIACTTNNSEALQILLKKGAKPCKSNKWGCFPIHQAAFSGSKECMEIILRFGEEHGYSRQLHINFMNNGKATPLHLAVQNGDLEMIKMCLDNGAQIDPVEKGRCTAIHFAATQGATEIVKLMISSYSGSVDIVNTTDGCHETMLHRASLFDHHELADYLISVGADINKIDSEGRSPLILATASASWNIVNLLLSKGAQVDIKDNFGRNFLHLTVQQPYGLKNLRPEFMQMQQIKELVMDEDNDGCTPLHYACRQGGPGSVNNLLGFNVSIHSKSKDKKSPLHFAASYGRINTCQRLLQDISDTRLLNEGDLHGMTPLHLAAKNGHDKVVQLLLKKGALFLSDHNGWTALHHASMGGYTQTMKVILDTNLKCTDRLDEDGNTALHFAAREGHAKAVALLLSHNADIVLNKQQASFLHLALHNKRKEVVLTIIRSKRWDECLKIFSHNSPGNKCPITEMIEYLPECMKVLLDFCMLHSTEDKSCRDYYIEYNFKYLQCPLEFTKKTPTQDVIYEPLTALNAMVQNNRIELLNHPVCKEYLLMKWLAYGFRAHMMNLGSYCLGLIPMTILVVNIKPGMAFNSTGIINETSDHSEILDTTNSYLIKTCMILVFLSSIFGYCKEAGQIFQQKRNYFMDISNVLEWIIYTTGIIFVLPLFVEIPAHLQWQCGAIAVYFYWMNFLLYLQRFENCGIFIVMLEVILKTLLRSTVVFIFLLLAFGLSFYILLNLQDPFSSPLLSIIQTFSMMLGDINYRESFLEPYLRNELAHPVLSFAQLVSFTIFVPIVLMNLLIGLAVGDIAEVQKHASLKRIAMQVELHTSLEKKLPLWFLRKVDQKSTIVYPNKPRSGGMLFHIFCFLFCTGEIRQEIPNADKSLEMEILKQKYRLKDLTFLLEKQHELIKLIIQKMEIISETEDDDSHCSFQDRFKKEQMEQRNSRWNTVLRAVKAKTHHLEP

`Cn1c(=O)c2c(CC(=O)Nc3nc(-c4ccc(Cl)c(Cl)c4)cs3)cccc2n(C)c1=O` [Example 47, N1-[4-(3,4-Dichlorophenyl)-1,3-thiazol-2yl]-2-(1,3-dimethyl-2,4-dioxo-1,2,3,4-tetrahydro-5-quinazolinyl)acetamide]: the inhibition (as a rule, the share of the control response that was lost under treatment) at 1 µM is 98.4%; the inhibition at 10 µM amounted to 99.2%; the IC50 (commonly the point on the concentration scale where inhibition reaches its midpoint) is 50.1 to 100 nM.

Regarding `Cn1c(=O)c2c(CC(=O)Nc3nnc(-c4ccc(Br)cc4)s3)cccc2n(C)c1=O` [Example 83, N1-[5-(4-Bromophenyl)-1,3,4-thadiazol-2-yl]-2-(1,3-dimethyl-2,4-dioxo-1,2,3,4-tetrahydro-5-quinazolinyl)acetamide], the inhibition at 1 µM is 5.49% and the inhibition at 10 µM was 3.46%.

On to `Cn1c(=O)c2c(CC(=O)Nc3nc(-c4ccc(Cl)cc4F)cs3)cccc2n(C)c1=O` [Example 51, N1-[4-(4-Chloro-2-fluorophenyl)-1,3-thiazol-2-yl]-2-(1,3-dimethyl-2,4-dioxo-1,2,3,4-tetrahydro-5-quinazolinyl)acetamide], for which the inhibition at 1 µM is 97.5%, the inhibition at 10 µM is 99.3% and the IC50 was over 100 nM.

Consider `Cn1c(=O)c2c(CC(=O)Nc3nc(-c4ccc(F)c(C(F)(F)F)c4F)cs3)cccc2n(C)c1=O` [Example 67, N1-{4-[2,4-Difluoro-3-trifluoromethylphenyl]-1,3-thiazol-2-yl}-2-(1,3-dimethyl-2,4-dioxo-1,2,3,4-tetrahydro-5-quinazolinyl)acetamide], for which the inhibition at 1 µM is 97.8% and the IC50 is under 50 nM. The inhibition at 3 µM (CHO, 3 μM test compound (printed in the 10.0 μM column), read-out: Percentage inhibition (3 μM)) was 99.5%.

Consider `Cn1c(=O)c2c(CC(=O)Nc3ccn(-c4ccc(Cl)cc4)n3)cccc2n(C)c1=O` [Example 80, N1-[1-(4-Chlorophenyl)-1H,3-pyrazolyl]-2-(1,3-dimethyl-2,4-dioxo-1,2,3,4-tetrahydro-5-quinazolinyl)acetamide], for which the inhibition at 1 µM amounted to 97.2%, the inhibition at 10 µM came out at 99.7% and the IC50 fell in the range of 50.1 to 100 nM.

Consider `Cn1c(=O)c2c(CC(=O)Nc3nc(-c4ccc(F)cc4F)cs3)cccc2n(C)c1=O` [Example 31, N1-[4-(2,4-Difluorophenyl)-1,3-thiazol-2-yl]-2-(1,3-dimethyl-2,4-dioxo-1,2,3,4-tetrahydro-5-quinazolinyl)acetamide], for which the inhibition at 1 µM turned out to be 90.1%, the inhibition at 10 µM stood at 97.9% and the IC50 was under 50 nM.

With `Cn1c(=O)c2c(CC(=O)Nc3nc(-c4cccc(Cl)c4F)cs3)cccc2n(C)c1=O` [Example 50, N1-[4-(3-Chloro-2-fluorophenyl)-1,3-thiazol-2-yl]-2-(1,3-dimethyl-2,4-dioxo-1,2,3,4-tetrahydro-5-quinazolinyl)acetamide], the inhibition at 1 µM was found to be 95.3%, the inhibition at 10 µM came to 98.9% and the IC50 lay in the range of 50.1 to 100 nM.

Take `Cn1c(=O)c2c(CC(=O)Nc3nc(-c4ccc(C(F)(F)F)c(F)c4F)cs3)cccc2n(C)c1=O` [Example 65, N1-[4-(2,3-Difluoro-4-trifluormethylphenyl)-1,3-thiazol-2-yl]-2-(1,3-dimethyl-2,4-dioxo-1,2,3,4-tetrahydro-5-quinazolinyl)acetamide]: the inhibition at 1 µM was 99.4%, the inhibition at 10 µM came to 99.6% and the IC50 is under 50 nM.

With `Cn1c(=O)c2c(CC(=O)Nc3nc(-c4c(F)ccc(F)c4F)cs3)cccc2n(C)c1=O` [Example 62], the inhibition at 1 µM came to 59%, the inhibition at 10 µM was 94.2% and the IC50 was over 100 nM.

Consider `Cn1c(=O)c2c(CC(=O)Nc3nc(-c4ccc(F)cc4C(F)(F)F)cs3)cccc2n(C)c1=O` [Example 39, N1-[4-(4-Fluoro-2-trifluoromethylphenyl)-1,3-thiazol-2-yl]-2-(1,3-dimethyl-2,4-dioxo-1,2,3,4-tetrahydro-5-quinazolinyl)acetamide], for which the inhibition at 1 µM came out at 51.6% and the inhibition at 10 µM is 90.3%.

Turning to `CCn1c(=O)c2c(CC(=O)Nc3nc(-c4ccc(Cl)cc4)cs3)cccc2n(CC)c1=O` [Example 25, N1-[4-(4-Chlorophenyl)-1,3-thiazol-2-yl]-2-(1,3-diethyl-2,4-dioxo-1,2,3,4-tetrahydro-5-quinazolinyl)acetamide], the inhibition at 1 µM stood at 20.4% and the inhibition at 10 µM is 30.8%.

Consider `Cn1c(=O)c2c(CC(=O)Nc3nc(-c4cc(F)c(OCC(F)(F)F)c(F)c4)cs3)cccc2n(C)c1=O` [Example 70, N1-{4-[3,5-Difluoro-4-(2,2,2-trifluoroethoxy)phenyl]-1,3-thiazol-2-yl}-2-(1,3-dimethyl-2,4-dioxo-1,2,3,4-tetrahydro-5-quinazolinyl)acetamide], for which the inhibition at 1 µM stood at 100%, the inhibition at 10 µM is 99.9% and the IC50 was under 50 nM.

As to `CCCn1c(=O)c2c(CC(=O)Nc3nc(-c4cccc(C(F)(F)F)c4)cs3)cccc2n(CCC)c1=O` [Example 26, N1-[4-(3-Trifluoromethylphenyl)-1,3-thiazo-2-yl]-2-(1,3-dipropyl-2,4-dioxo-1,2,3,4-tetrahydro-5-quinazolinyl)acetamide], the inhibition at 1 µM amounted to 13.6% and the inhibition at 10 µM worked out at 5.39%.

Take `CCOC(=O)n1c(=O)[nH]c2cccc(CC(=O)Nc3nc(-c4ccc(Cl)cc4)cs3)c2c1=O` [Example 28]: the inhibition at 1 µM is 2.8% and the inhibition at 10 µM is 6.54%.

`Cn1c(=O)c2c(CC(=O)Nc3nc(-c4ccc(F)c(F)c4)cs3)cccc2n(C)c1=O` [Example 32, N1-[4-(3,4-Difluorophenyl)-1,3-thiazol-2-yl]-2-(1,3-dimethyl-2,4-dioxo-1,2,3,4-tetrahydro-5-quinazolinyl)acetamide]: the inhibition at 1 µM was found to be 53.7% and the inhibition at 10 µM came out at 66.3%.

Consider `Cn1c(=O)c2c(CC(=O)Nc3nc(-c4ccc(F)cc4Cl)cs3)cccc2n(C)c1=O` [Example 54], for which the inhibition at 1 µM was 74.1%, the inhibition at 10 µM came out at 99.8% and the IC50 was under 50 nM.

Take `Cn1c(=O)c2c(CC(=O)Nc3nc(-c4ccc(C(F)(F)F)cc4)cs3)cccc2n(C)c1=O` [Example 14, N1-[4-(4-Trifluromethylphenyl)-1,3-thiazol-2yl]-2-(1,3-dimethyl-2,4-dioxo-1,2,3,4-tetrahydro-5-quinazolinyl)acetamide]: the inhibition at 1 µM is 97.9%, the inhibition at 10 µM is 99.1% and the IC50 was under 50 nM.

With `Cn1c(=O)c2c(CC(=O)Nc3ccn(-c4ccc(Cl)cc4F)n3)cccc2n(C)c1=O` [Example 82, N1-[1-(4-Chloro-2-Fluorophenyl)-1H-3-pyrazolyl]-2-(1,3-dimethyl-2,4-dioxo-1,2,3,4-tetrahydro-5-quinazolinyl)acetamide], the inhibition at 1 µM amounted to 76.7%, the inhibition at 10 µM is 90.7% and the IC50 is over 100 nM.

For the molecule `Cn1c(=O)c2c(CC(=O)Nc3nc(-c4c[nH]c5ccccc45)cs3)cccc2n(C)c1=O` [Example 73, N1-[4-(1H-3-Indolyl)-1,3-thiazol-2-yl]-2-(1,3-dimethyl-2,4-dioxo-1,2,3,4-tetrahydro-5-quinazolinyl)acetamide], the inhibition at 1 µM is 32.5% and the inhibition at 10 µM stood at 72.6%.

For the molecule `Cn1c(=O)c2c(CC(=O)Nc3nc(-c4ccc(F)c(OC(F)(F)F)c4)cs3)cccc2n(C)c1=O` [Example 42], the inhibition at 1 µM was 98.3%, the inhibition at 10 µM worked out at 99% and the IC50 is 50.1 to 100 nM.

Values taken from patent US7951814B2, “Quinazolinedione derivatives as TRPA1 modulators” (Glenmark Pharmaceuticals, S.A., priority 2008, dated 2011).
